Results from PubChem BioAssay (NCI).
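Protocol summary: plate cells (96-well), add compound at 5 concentrations, incubate 48 h, interpolate endpoints linearly. At the GI50, growth is halved. TGI marks complete inhibition of growth.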

Tests used:
Experiment in all cases: NCI anticancer screen, dose series, 48 h
786-0 renal = test system: 786-0 renal
A498 renal = test system: A498 renal
A549 NSCLC = test system: A549 NSCLC
ACHN renal = test system: ACHN renal
BT-549 breast = test system: BT-549 breast
CAKI-1 renal = test system: CAKI-1 renal
CCRF-CEM leukemia = test system: CCRF-CEM leukemia
COLO 205 colon = test system: COLO 205 colon
DU-145 prostate = test system: DU-145 prostate
EKVX NSCLC = test system: EKVX NSCLC
HCC-2998 colon = test system: HCC-2998 colon
HCT-116 colon = test system: HCT-116 colon
HCT-15 colon = test system: HCT-15 colon
HL-60(TB) leukemia = test system: HL-60(TB) leukemia
HOP-62 NSCLC = test system: HOP-62 NSCLC
HS 578T breast = test system: HS 578T breast
HT29 colon = test system: HT29 colon
IGROV1 ovarian = test system: IGROV1 ovarian
K-562 leukemia = test system: K-562 leukemia
KM12 colon = test system: KM12 colon
LOX IMVI melanoma = test system: LOX IMVI melanoma
M14 melanoma = test system: M14 melanoma
MALME-3M melanoma = test system: MALME-3M melanoma
MCF7 breast = test system: MCF7 breast
MDA-MB-231 breast = test system: MDA-MB-231 breast
MDA-MB-435 = test system: MDA-MB-435
MOLT-4 leukemia = test system: MOLT-4 leukemia
NCI-H226 lung = test system: NCI-H226 lung
NCI-H23 lung = test system: NCI-H23 lung
NCI-H460 lung = test system: NCI-H460 lung
NCI-H522 lung = test system: NCI-H522 lung
NCI/ADR-RES ovarian = test system: NCI/ADR-RES ovarian
OVCAR-3 ovarian = test system: OVCAR-3 ovarian
OVCAR-4 ovarian = test system: OVCAR-4 ovarian
OVCAR-5 ovarian = test system: OVCAR-5 ovarian
OVCAR-8 ovarian = test system: OVCAR-8 ovarian
PC-3 prostate = test system: PC-3 prostate
RXF 393 renal = test system: RXF 393 renal
SF-268 CNS = test system: SF-268 CNS
SF-295 CNS = test system: SF-295 CNS
SF-539 CNS = test system: SF-539 CNS
SK-MEL-2 melanoma = test system: SK-MEL-2 melanoma
SK-MEL-28 melanoma = test system: SK-MEL-28 melanoma
SK-MEL-5 melanoma = test system: SK-MEL-5 melanoma
SK-OV-3 ovarian = test system: SK-OV-3 ovarian
SN12C renal = test system: SN12C renal
SNB-19 CNS = test system: SNB-19 CNS
SNB-75 CNS = test system: SNB-75 CNS
SR leukemia = test system: SR leukemia
SW-620 colon = test system: SW-620 colon
T-47D breast = test system: T-47D breast
TK-10 renal = test system: TK-10 renal
U251 CNS = test system: U251 CNS
UACC-257 melanoma = test system: UACC-257 melanoma
UACC-62 melanoma = test system: UACC-62 melanoma
UO-31 renal = test system: UO-31 renal

ClCCn1cnc2c(SCc3ccccc3Cl)ncnc21
GI50 (786-0 renal): 0.671 µM | TGI (786-0 renal): 20.4 µM | GI50 (A498 renal): 24.5 µM | TGI (A498 renal): > 93 µM | GI50 (A549 NSCLC): 0.278 µM | TGI (A549 NSCLC): > 39.6 µM | GI50 (ACHN renal): 0.51 µM | TGI (ACHN renal): > 100 µM | GI50 (BT-549 breast): 8.79 µM | TGI (BT-549 breast): 53.6 µM | GI50 (CAKI-1 renal): 0.272 µM | TGI (CAKI-1 renal): 24.7 µM | GI50 (CCRF-CEM leukemia): 2 µM | TGI (CCRF-CEM leukemia): 36.5 µM | GI50 (COLO 205 colon): 2.01 µM | TGI (COLO 205 colon): > 100 µM | GI50 (DU-145 prostate): 0.754 µM | TGI (DU-145 prostate): 25 µM | GI50 (EKVX NSCLC): 13.8 µM | TGI (EKVX NSCLC): > 78 µM | GI50 (HCC-2998 colon): 1.75 µM | GI50 (HCT-116 colon): 0.0679 µM | TGI (HCT-116 colon): 21 µM | GI50 (HCT-15 colon): 0.0383 µM | TGI (HCT-15 colon): > 100 µM | GI50 (HL-60(TB) leukemia): 0.416 µM | TGI (HL-60(TB) leukemia): 8.94 µM | GI50 (HOP-62 NSCLC): 2.56 µM | TGI (HOP-62 NSCLC): > 100 µM | GI50 (HS 578T breast): 19.4 µM | TGI (HS 578T breast): 89 µM | GI50 (HT29 colon): 0.191 µM | TGI (HT29 colon): > 100 µM | GI50 (IGROV1 ovarian): 0.51 µM | TGI (IGROV1 ovarian): > 41.6 µM | GI50 (K-562 leukemia): 0.0755 µM | TGI (K-562 leukemia): > 59.1 µM | GI50 (KM12 colon): 0.789 µM | TGI (KM12 colon): 46.6 µM | GI50 (LOX IMVI melanoma): 0.0756 µM | TGI (LOX IMVI melanoma): 11.9 µM | GI50 (M14 melanoma): 7.5 µM | TGI (M14 melanoma): > 76.6 µM | GI50 (MALME-3M melanoma): 14.2 µM | TGI (MALME-3M melanoma): 45.4 µM | GI50 (MCF7 breast): 0.446 µM | TGI (MCF7 breast): > 100 µM | GI50 (MDA-MB-231 breast): 5.77 µM | TGI (MDA-MB-231 breast): > 100 µM | GI50 (MDA-MB-435): 0.779 µM | TGI (MDA-MB-435): 50.7 µM | GI50 (MOLT-4 leukemia): 0.176 µM | TGI (MOLT-4 leukemia): 9.4 µM | GI50 (NCI-H226 lung): 3.52 µM | TGI (NCI-H226 lung): 59.9 µM | GI50 (NCI-H23 lung): 9.69 µM | TGI (NCI-H23 lung): > 73.7 µM | GI50 (NCI-H460 lung): 0.0533 µM | TGI (NCI-H460 lung): 16.4 µM | GI50 (NCI-H522 lung): 2.64 µM | TGI (NCI-H522 lung): > 71.1 µM | GI50 (NCI/ADR-RES ovarian): 1.2 µM | TGI (NCI/ADR-RES ovarian): > 52.5 µM | GI50 (OVCAR-3 ovarian): 9.31 µM | TGI (OVCAR-3 ovarian): 29.8 µM | GI50 (OVCAR-4 ovarian): 14.4 µM | TGI (OVCAR-4 ovarian): > 100 µM | GI50 (OVCAR-5 ovarian): 37.8 µM | TGI (OVCAR-5 ovarian): > 100 µM | GI50 (OVCAR-8 ovarian): 0.576 µM | TGI (OVCAR-8 ovarian): > 90.5 µM | GI50 (PC-3 prostate): 0.717 µM | TGI (PC-3 prostate): 46.6 µM | GI50 (RXF 393 renal): 1.35 µM | TGI (RXF 393 renal): 26.4 µM | GI50 (SF-268 CNS): 4.87 µM | TGI (SF-268 CNS): > 84.7 µM | GI50 (SF-295 CNS): 0.184 µM | TGI (SF-295 CNS): 20.2 µM | GI50 (SF-539 CNS): 0.267 µM | TGI (SF-539 CNS): 68.8 µM | GI50 (SK-MEL-2 melanoma): 12.7 µM | TGI (SK-MEL-2 melanoma): 54.4 µM | GI50 (SK-MEL-28 melanoma): 5.3 µM | TGI (SK-MEL-28 melanoma): > 83.8 µM | GI50 (SK-MEL-5 melanoma): 0.272 µM | TGI (SK-MEL-5 melanoma): 43.3 µM | GI50 (SK-OV-3 ovarian): 9.72 µM | TGI (SK-OV-3 ovarian): > 100 µM | GI50 (SN12C renal): 1.26 µM | TGI (SN12C renal): > 100 µM | GI50 (SNB-19 CNS): 1.98 µM | TGI (SNB-19 CNS): > 100 µM | GI50 (SNB-75 CNS): 6.69 µM | TGI (SNB-75 CNS): > 63.2 µM | GI50 (SR leukemia): 0.0609 µM | TGI (SR leukemia): 13.1 µM | GI50 (SW-620 colon): 0.511 µM | TGI (SW-620 colon): > 100 µM | GI50 (T-47D breast): 13.7 µM | TGI (T-47D breast): 79.5 µM | GI50 (TK-10 renal): 5.44 µM | TGI (TK-10 renal): > 83.1 µM | GI50 (U251 CNS): 0.0925 µM | TGI (U251 CNS): > 89.8 µM | GI50 (UACC-257 melanoma): 2.64 µM | GI50 (UACC-62 melanoma): 0.529 µM | TGI (UACC-62 melanoma): > 48.1 µM | GI50 (UO-31 renal): 0.883 µM | TGI (UO-31 renal): 41.8 µM
